Columns and labels:
E. coli MG1655 = type: cell-based, Escherichia coli
[1] = test system: DMSO-differentiated HL-60 cells; assay: Energy use by DMSO-differentiated HL-60 cells; type: cell-based, human; conditions: for activity at 30 µM / activity at 100 µM / activity at 330 µM / activity at 1000 µM / activity at 3300 µM / activity at 10000 µM / activity at 15000 µM / activity at 20000 µM: Homo sapiens, HL-60, 24 h, read-out: Energy Use by DMSO-Differentiated HL-60 Cells; for activity at 30 µM: Conc. 0.03 mM; for activity at 100 µM: Conc. 0.10 mM; for activity at 330 µM: Conc. 0.33 mM; for activity at 1000 µM: Conc. 1.00 mM; for activity at 3300 µM: Conc. 3.3 mM; for activity at 10000 µM: Conc. 10 mM; for activity at 15000 µM: Conc. 15 mM; for activity at 20000 µM: Conc. 20 mM
Protocol: In this Example, methods for testing in vitro-differentiated cells for their ability to use multiple energy sources are described. Prior to differentiation, HL-60 cells were cultured as described in Example 27. DMSO-induced differentiation (Odani et al., Res. Commun. Mol. Pathol. Pharmacol. 108:381-391 [2000]; and Yamaguchi et al., Biol. Pharm. Bull. 20:943-947 [1997]) was accomplished by incubation of the cells in the presence of 1.25% DMSO for 3 days.
After washing, HL-60 cells were resuspended in DME-R. An aliquot of the cell suspension was counted by trypan blue exclusion and the cell density was adjusted to 6.67×10^5/mL. Fifty μL of DME-R were added to each well of the appropriate number of half area, 96-well plates, followed by 25 μL of the appropriate dilution of each test energy source. Stocks of 133 mM of each test chemical were prepared in tissue culture grade water, sterile filtered, and dilutions were prepared in a master plate so that, upon dilution into a half-area 96-well microtiter plate to a total well volume of 150 μL, the final concentrations would be 0.033 to 20 mM. Negative control wells received 25 μL of tissue culture grade water. The cells were plated at a volume of 75 μL/well, giving a final cell density of 5×10^4/well. For each plate containing energy sources and cells, a second, control plate containing only energy sources was prepared with the same total volume of liquid (148 μL/well). Plates were incubated at 5% CO2, 90-100% humidity, and 37° C. for 24 hours prior to addition of the MTS/MPMS calorimetric reagent (7.5 μL/well). The color formed in each well 24 hours after addition of the colorimetric reagent, was measured with a plate reader at 490 nm with a reference wavelength of 650 nm. OD values from the control plate were subtracted from the OD values obtained with cells prior to normalizing the data to % negative control (cells without added energy source).

HL-60 cells = assay: Effect of 1 mM chloramphenicol on HL-60 energy utilization; type: cell-based, human; conditions: for Effect of 1 mM chloramphenicol on HL-60 Energy Utilization: negative control without chloramphenicol
Protocol: In this Example, methods for testing antimicrobial-induced modulation in growth of a cell are described. The antimicrobial selected for this Example is chloramphenicol. However, this application is not intended to be limited to the use of chloramphenicol, translation inhibitors or even antibiotics. HL-60 cells were cultured as described in Example 27.
After washing, HL-60 cells were resuspended in DME-R. An aliquot of the cell suspension was counted by trypan blue exclusion and the cell density was adjusted to 6.67×10^5[…]. Fifty μL of DME-R containing 3 mM chloramphenicol were added to each well of the appropriate number of half area, 96-well plates, followed by 25 μL of the appropriate dilution of each test energy source. Stocks of 133 mM of each test chemical were prepared in tissue culture grade water, sterile filtered, and dilutions were prepared in a master plate so that, upon dilution in a total volume of 150 μL, the final concentrations would be 0.033 to 20 mM. Negative control wells received 25 μL of tissue culture grade water. The cells were plated at a volume of 75 μL/well, giving a final cell density of 5×10^4/well. For each plate containing energy sources and cells, a second, control plate containing only energy sources was prepared. Plates were incubated at 5% CO2, 90-100% humidity, and 37° C. for 24 hours prior to addition of the MTS/MPMS colorimetric reagent (7.5 μL/well). The color formed in each well 24 hours after addition of the colorimetric reagent, was measured with a plate reader at 490 nm with a reference wavelength of 650 nm. OD values from the control plate were subtracted from the OD values obtained with cells prior to normalizing the data to % negative control.
Data shown in Table 25 are expressed as percent negative control without chloramphenicol. […] Chloramphenicol clearly has a different effect on the cells than citrate shown in Example 33.

[2] = energy source 0.03 mM with 1 mM chloramphenicol
[3] = energy source 0.10 mM with 1 mM chloramphenicol
[4] = energy source 0.33 mM with 1 mM chloramphenicol
[5] = energy source 1.00 mM with 1 mM chloramphenicol
[6] = energy source 3.3 mM with 1 mM chloramphenicol
[7] = energy source 10 mM with 1 mM chloramphenicol
[8] = energy source 15 mM with 1 mM chloramphenicol
[9] = energy source 20 mM with 1 mM chloramphenicol

Structure (SMILES)	suitability as nitrogen source (growth, purple color) (E. coli MG1655)	activity at 30 µM [1]	activity at 100 µM [1]	activity at 330 µM [1]	activity at 1000 µM [1]	activity at 3300 µM [1]	activity at 10000 µM [1]	activity at 15000 µM [1]	activity at 20000 µM [1]	Effect of 1 mM chloramphenicol on HL-60 Energy Utilization (HL-60 cells; [2])	Effect of 1 mM chloramphenicol on HL-60 Energy Utilization (HL-60 cells; [3])	Effect of 1 mM chloramphenicol on HL-60 Energy Utilization (HL-60 cells; [4])	Effect of 1 mM chloramphenicol on HL-60 Energy Utilization (HL-60 cells; [5])	Effect of 1 mM chloramphenicol on HL-60 Energy Utilization (HL-60 cells; [6])	Effect of 1 mM chloramphenicol on HL-60 Energy Utilization (HL-60 cells; [7])	Effect of 1 mM chloramphenicol on HL-60 Energy Utilization (HL-60 cells; [8])	Effect of 1 mM chloramphenicol on HL-60 Energy Utilization (HL-60 cells; [9])	protective effect of energy source (HL-60 cells; in the presence of 1 mM chloramphenicol)	energy source use in words ([1]; DMSO-differentiated HL-60 cells)
NC(=O)CC[C@H](N)C(=O)O [L-glutamine]	positive	110%	149%	154%	156%	172%	157%	121%	109%	33.7 % of negative control	39.8 % of negative control	60.6 % of negative control	69.0 % of negative control	85.0 % of negative control	90.0 % of negative control	89.0 % of negative control	82.1 % of negative control	limit the effect to maintenance of the cells at the level seen with no chloramphenicol and no added energy source	–
N[C@@H](Cc1c[nH]cn1)C(=O)O [L-histidine]	not suitable	119%	123%	128%	157%	172%	171%	140%	114%	6.9 % of negative control	4.3 % of negative control	7.3 % of negative control	7.2 % of negative control	13.9 % of negative control	19.1 % of negative control	13.1 % of negative control	8.4 % of negative control	–	–
CC(C)[C@H](N)C(=O)O [L-valine]	not suitable	81.1%	89.4%	85.2%	86.7%	81.2%	89.3%	81.4%	88.6%	6.6 % of negative control	4.3 % of negative control	4.0 % of negative control	3.2 % of negative control	4.3 % of negative control	5.5 % of negative control	2.6 % of negative control	7.5 % of negative control	–	–
Cc1cn([C@H]2C[C@H](O)[C@@H](CO)O2)c(=O)[nH]c1=O [Thymidine]	not suitable	96%	112%	143%	165%	173%	160%	160%	103%	8.4 % of negative control	5.8 % of negative control	6.4 % of negative control	3.1 % of negative control	8.8 % of negative control	5.8 % of negative control	6.0 % of negative control	7.3 % of negative control	–	able to utilize thymidine at concentrations of 0.1-15 mM

From patent US9274101B2 (BIOLOG, Inc., priority 2001, dated 2016)
